Measurements taken from US20120244074A1, “LABELLED INTEGRIN BINDERS” (priority 2009, published 2012).

Key:
[1] = molecular target: T1, integrin receptors αvβ3 (Homo sapiens, UniProt P05106+P06756); test: In vitro affinity assessment αvβ3: competition with radiolabelled Echistatin on membrane fractions of EA-Hy 926; format: binding; conditions: for competing out binding of the radiolabelled Echistatin: highest concentration tested 144 μM, FIG. 1
T1 construct: membrane fractions prepared from human endothelial adenocarcinoma cell line EA-Hy 926; endogenous in cells; host or cells: EA-Hy 926 (human endothelial cell line), membrane fractions
Procedure: Affinity for integrin receptors αvβ3 was measured by competition experiments with [[…]]-Echistatin on membrane fractions prepared from human endothelial adenocarcinoma cell line EA-Hy 926 using a homogenizer and isolated by ultracentrifugation. Dilutions of test compounds were mixed with the radiotracer and membrane fraction prior to incubation for 1 h at 37° C. After a washing procedure the membranes were harvested on a filter using Skatron micro harvester. The filter spots were finally excised and counted in a Packard γ-counter. The Kd of [[…]]-Echistatin was calculated using Prism software. […] The compounds tested were EMD527040 (benchmark), the cPn216-chelated compound of Example 2(viii) and the tetraamine-chelated compound of Example 3(ii).

[2] = tested on: lung adenocarcinoma cell line H2009; test: Flow cytometry evaluation of binding on H2009 cells; format: cell-based; conditions: 100 nM, incubation time 1 h at 37° C.
Source text: Binding of imaging agent 7 (prepared as described in Example 9) was studied using flow cytometric analysis (Beckman Coulter FC500 MPL) on lung adenocarcinoma cell line H2009 (Cancer Res; 67: 5889-5895).

Molecule | competing out binding of the radiolabelled Echistatin [1] | other results
Echistatin [reference compound] | – | Ki ([1]; competition with [^115I]-Echistatin, EA-Hy 926 membrane fraction, 1 h at 37° C.): 0.14 nM
1-(Cy5**-amido)-45-(3,5-dichlorophenyl)-39,43-dioxo-42-(5-(pyridin-2-ylamino)pentanamido)-3,6,9,12,15,18,21,24,27,30,33,36-dodecaoxa-40,44-diazaheptatetracontan-47-oic acid [imaging agent 7] | – | positive uptake, share of the cells [2]: around 40%
C/C(=N/O)C(C)(C)NCCC(CCNC(=O)CCCC(=O)NC[C@H](NC(=O)CCCCNc1ccccn1)C(=O)NC(CC(=O)O)c1cc(Cl)cc(Cl)c1)CCNC(C)(C)/C(C)=N\O (stereo partly drawn) [Example 2(viii), (6S,Z)-3-(3,5-dichlorophenyl)-22-(hydroxyimino)-17-(2-(((Z)-3-(hydroxyimino)-2-methylbutan-2-yl)amino)ethyl)-21,21-dimethyl-5,9,13-trioxo-6-(5-(pyridin-2-ylamino)pentanamido)-4,8,14,20-tetraazatricosan-1-oic acid] | not possible to compete out binding of the radiolabelled Echistatin completely | –
O=C(O)CC(NC(=O)[C@H](COCc1ccccc1)NC(=O)CCCCNc1ccccn1)c1cc(Cl)cc(Cl)c1 (some centres unmarked) [EMD527040, reference compound] | not possible to compete out binding of the radiolabelled Echistatin completely | –
NCCNCC(CNCCN)CC(=O)NC[C@H](NC(=O)CCCCNc1ccccn1)C(=O)NC(CC(=O)O)c1cc(Cl)cc(Cl)c1 (stereo partly drawn) [Example 3(ii), 3-((S)-3-(4-(2-Aminoethylamino)-3-((2-aminoethylamino)methyl)butanamido)-2-(5-(pyridin-2-ylamino)pentanamido)propanamido)-3-(3,5-dichlorophenyl)propanoic acid] | not possible to compete out binding of the radiolabelled Echistatin completely | –
